Experimental findings from ChEMBL document CHEMBL1132079, “Combined NK1 and NK2 tachykinin receptor antagonists: synthesis and structure-activity relationships of novel oxazolidine analogues” (Bioorg Med Chem Lett, 1999) are described below.

By IC50 is commonly meant the concentration needed to halve the response being measured. A high value points to a need for much substance.

For experiment [1], the target named is T1, Substance-K receptor (Cavia porcellus, UniProt Q64077).
T1 sequence (Q64077 whole entry): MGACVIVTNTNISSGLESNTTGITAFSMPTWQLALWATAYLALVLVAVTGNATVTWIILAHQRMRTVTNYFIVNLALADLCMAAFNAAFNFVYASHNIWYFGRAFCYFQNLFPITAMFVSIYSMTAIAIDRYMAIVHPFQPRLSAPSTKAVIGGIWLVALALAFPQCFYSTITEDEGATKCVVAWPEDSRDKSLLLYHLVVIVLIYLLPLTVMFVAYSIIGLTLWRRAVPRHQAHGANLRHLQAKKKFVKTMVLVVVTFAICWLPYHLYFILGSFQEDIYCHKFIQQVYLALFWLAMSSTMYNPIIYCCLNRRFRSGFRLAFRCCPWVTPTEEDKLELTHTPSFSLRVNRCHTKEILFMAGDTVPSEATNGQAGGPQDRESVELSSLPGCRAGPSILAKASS
Briefly: Inhibitory activity against Neurokinin 2 (NK2) receptor from guinea pig ileum. Format: tissue-based.

Experiment [2] addresses Substance-P receptor (Cavia porcellus, UniProt P30547). Kind of experiment: Inhibitory activity against Neurokinin 1 (NK1) receptor from guinea pig lung.
Experiment [3] deals with Cavia porcellus. Briefly: In vivo inhibitory activity against SP-induced vascular hyperpermeability in guinea pig after iv administration. Format: functional. Particulars: read-out: ID50 (the source's name).
Experiment [4] has as its system Cavia porcellus. Briefly: In vivo inhibitory activity against [Nle10] ]-NKA[4-10]-induced bronchoconstriction in guinea pig after iv administration. Particulars: read-out: ID50 (the source's name). Format: functional.

Sequence of Substance-P receptor (P30547 whole entry): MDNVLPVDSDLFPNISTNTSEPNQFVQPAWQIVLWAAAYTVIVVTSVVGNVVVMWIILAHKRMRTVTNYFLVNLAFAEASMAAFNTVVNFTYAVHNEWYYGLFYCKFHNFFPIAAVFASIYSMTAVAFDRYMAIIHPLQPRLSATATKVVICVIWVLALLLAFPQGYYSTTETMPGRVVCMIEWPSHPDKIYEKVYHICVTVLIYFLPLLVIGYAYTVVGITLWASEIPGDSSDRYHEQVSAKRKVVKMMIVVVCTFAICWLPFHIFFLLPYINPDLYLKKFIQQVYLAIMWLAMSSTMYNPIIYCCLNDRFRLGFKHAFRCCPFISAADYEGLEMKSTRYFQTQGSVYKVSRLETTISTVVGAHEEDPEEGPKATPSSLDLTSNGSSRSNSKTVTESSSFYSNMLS

`COc1cc(C(=O)N2CO[C@](CCN3CCC(C(N)=O)(c4ccccc4)CC3)(c3ccc(F)c(F)c3)C2)cc(OC)c1OC`: the results for the IC50 in experiment [1] and in experiment [2] were 328 nM and 16.4 nM, respectively.

Consider `COc1cc(C(=O)N2CO[C@](CCN3CCC4(CC3)NC(=O)Cc3ccccc34)(c3ccc(Cl)cc3)C2)cc(OC)c1OC`, for which the IC50 in experiment [1] was 5.16 nM; in experiment [2], 82.2 nM.

For `COc1cc(C(=O)N2CO[C@](CCN3CCC4(CC3)c3ccccc3C[S+]4[O-])(c3ccc(Cl)c(Cl)c3)C2)cc(OC)c1OC` (stereo partly drawn), the figures for the IC50 in experiment [1] and in experiment [2] were 11.4 nM and 10.2 nM, respectively. Moreover, the ED50 in experiment [3] stood at 0.025 mg/kg; in experiment [4] it was 0.074 mg/kg.

Consider `COc1cc(C(=O)N2CO[C@](CCN3CCC4(CC3)c3ccccc3C[S+]4[O-])(c3ccc(F)c(F)c3)C2)cc(OC)c1OC` (stereo partly drawn), for which the results for the IC50 in experiment [1] and in experiment [2] were 30.3 nM and 25.5 nM, respectively.

Consider `COc1cc(C(=O)N2CO[C@](CCN3CCC4(CC3)NC(=O)Cc3ccccc34)(c3ccc(F)c(F)c3)C2)cc(OC)c1OC`, for which the values for the IC50 in experiment [1] and in experiment [2] were 10.9 nM and 45 nM, respectively.

For the compound `COc1cc(C(=O)N2CO[C@](CCN3CCC(C(N)=O)(c4ccccc4)CC3)(c3ccc(Cl)c(Cl)c3)C2)cc(OC)c1OC`, the IC50 in experiment [1] is 142 nM; in experiment [2] it was 9.65 nM.

On to `COc1cc(C(=O)N2CO[C@](CCN3CCC4(CC3)c3ccccc3C[S+]4[O-])(c3ccc(F)cc3)C2)cc(OC)c1OC` (stereo partly drawn), for which the IC50 in experiment [1] was 34.5 nM; in experiment [2] it was 24.6 nM.

Turning to `COc1cc(C(=O)N2CO[C@](CCCN3CCC(C(N)=O)(c4ccccc4)CC3)(c3ccc(Cl)c(Cl)c3)C2)cc(OC)c1OC`, the IC50 is above 1520 nM in experiment [1] and 35 nM in experiment [2].

For `COc1cc(C(=O)N2CO[C@](CCN3CCC(C(=O)N(C)C)(c4ccccc4)CC3)(c3ccc(F)c(F)c3)C2)cc(OC)c1OC`, the IC50 in experiment [1] was 20.4 nM; in experiment [2] it was 42.3 nM.

Regarding `COc1cc(C(=O)N2CO[C@](CCN3CCC(O)(c4ccncc4)CC3)(c3ccc(Cl)c(Cl)c3)C2)cc(OC)c1OC`, the half-inhibitory concentration (IC50) was 144 nM in experiment [1] and 3.08 nM in experiment [2].

For the compound `COc1cc(C(=O)N2CO[C@](CCN3CCC4(CC3)NC(=O)Cc3ccccc34)(c3ccc(Cl)c(Cl)c3)C2)cc(OC)c1OC`, the IC50 in experiment [1] was 4.58 nM; in experiment [2], 18.3 nM.

With `NC(=O)C1(c2ccccc2)CCN(CC[C@@]2(c3ccc(Cl)c(Cl)c3)CN(C(=O)c3cc(C(F)(F)F)cc(C(F)(F)F)c3)CO2)CC1`, the IC50 in experiment [1] was 160 nM; in experiment [2], 145 nM.

Take `COc1cc(C(=O)N2CO[C@](CCN3CCC4(CC3)NC(=O)Cc3ccccc34)(c3ccc(F)cc3)C2)cc(OC)c1OC`: the figures for the IC50 in experiment [1] and in experiment [2] were 10.3 nM and 48 nM, respectively.

As to `COc1cc(C(=O)N2CO[C@](CCN3CCC(C(=O)N(C)C)(c4ccccc4)CC3)(c3ccc(Cl)c(Cl)c3)C2)cc(OC)c1OC`, the IC50 in experiment [1] is 8.2 nM; in experiment [2], 25.3 nM.

Take `COc1cc(C(=O)N2CO[C@](CCN3CCC(C(N)=O)(c4ccccc4)CC3)(c3ccc(F)cc3)C2)cc(OC)c1OC`: the IC50 was 744 nM in experiment [1] and 45.6 nM in experiment [2].

With `COc1cc(C(=O)N2CO[C@](CCN3CCC4(CC3)c3ccccc3CS4(=O)=O)(c3ccc(Cl)c(Cl)c3)C2)cc(OC)c1OC`, the IC50 in experiment [1] was 28.1 nM; in experiment [2], 34 nM.

Turning to `COc1cc(C(=O)N2CO[C@](CCN3CCC(C(=O)N4CCCC4)(c4ccccc4)CC3)(c3ccc(Cl)c(Cl)c3)C2)cc(OC)c1OC`, the IC50 in experiment [1] was 91.9 nM; in experiment [2], 11.2 nM.

Consider `COc1cc(C(=O)N2CO[C@](CCN3CCC4(CC3)C(=O)N(C)c3ccccc34)(c3ccc(Cl)c(Cl)c3)C2)cc(OC)c1OC`, for which the IC50 is 51.9 nM in experiment [1] and 14.1 nM in experiment [2].

For `COc1cc(C(=O)N2CO[C@](CCN3CCC4(CC3)C[S+]([O-])c3ccccc34)(c3ccc(Cl)c(Cl)c3)C2)cc(OC)c1OC` (stereo partly drawn), the IC50 in experiment [1] was 11.1 nM; in experiment [2], 8.94 nM.

Consider `COc1cc(C(=O)N2CO[C@](CCN3CCC(C(=O)N(C)C)(c4ccccc4)CC3)(c3ccc(Cl)cc3)C2)cc(OC)c1OC`, for which the concentration for half-maximal inhibition (IC50) in experiment [1] was 7.39 nM; in experiment [2], 78.6 nM.

As to `COc1cc(C(=O)N2CO[C@](CCN3CCC(C(=O)N4CCOCC4)(c4ccccc4)CC3)(c3ccc(Cl)c(Cl)c3)C2)cc(OC)c1OC`, the IC50 in experiment [1] is 73 nM; in experiment [2], 44.9 nM.

Consider `COc1cc(C(=O)N2CO[C@](CCN3CCN(c4ccc(C(C)=O)cc4)CC3)(c3ccc(Cl)c(Cl)c3)C2)cc(OC)c1OC`, for which the IC50 was 115 nM in experiment [1] and 28 nM in experiment [2].

As for `COc1cc(C(=O)N2CO[C@](CCN3CCC(C(N)=O)(c4ccccc4)CC3)(c3ccc(Cl)cc3)C2)cc(OC)c1OC`, the IC50 in experiment [1] is 329 nM; in experiment [2], 44.4 nM.
